The text below walks through data of patent US20250073311A1, “DOSAGE REGIME” (ZEALAND PHARMA A/S, priority 2021, published 2025).

Data set [1] can be described thus: Plasma half-life in single ascending dose Phase 1a trial (LC-MS/MS). Type of data set: in vivo. The settings on record: human. As for the experimental part: Blood sampling for determining Cpd 18 plasma concentrations were performed during the phase la study (outlined in Example 2) at scheduled timepoints. Concentration of Cpd 18 in plasma was measured using a validated LC-MS/MS assay. Pharmacokinetic (PK) endpoints for Cpd 18 were derived from the individual concentration profiles (with hour as time unit). For PK analysis, Cpd 18 concentrations were supplied by the analytical laboratory in nmol/L. Mean measured concentrations per dose level are shown in […].
For determination of λz a linear regression was performed using the logarithm to plasma Cpd. 18 concentration as the response variable and at least three valid concentration measurements of the terminal end period after Cmax. (The exact number of data points depends on the best goodness-of-fit). Cmax is not included in the calculation for λz as this point may be affected by absorption still taking place from the injection site.
The terminal elimination half-life of the plasma Cpd. 18 profile (t½) was calculated by the following formula: […]

Data set [2] can be described thus: Body weight in Phase 1b trial. It counts as in vivo, human. The settings on record: four once weekly s.c. doses, 1.0 mg to 3.5/6.0 mg, healthy subjects, FIG. 3.

Where two headings read alike, the source gives them in different places. Numbered stars: 1 amine (or outer) side, 2 acyl side, 3 side chain; on linkers, the order of the positions; unused ones are H or OH. Square brackets hold non-standard residues; d marks the D form. Side chains are listed from the residue outwards. Peptide text beside a SMILES is read from it. * marks the point of attachment. C18 diacid = O=C(O)CCCCCCCCCCCCCCCCC(=O)*; γGlu = O=C(O)[C@H](CCC(=O)[*:2])N[*:1]; Aib = CC(C)(N)C(=O)O

Take `CC[C@H](C)[C@H](NC(=O)[C@H](Cc1ccccc1)NC(=O)[C@H](CC(=O)O)NC(=O)[C@H](CCCNC(=N)N)NC(=O)[C@H](C)NC(=O)[C@H](C)NC(=O)[C@H](CCC(N)=O)NC(=O)[C@H](CCCCNC(=O)CC[C@H](NC(=O)CCCCCCCCCCCCCCCCC(=O)O)C(=O)O)NC(=O)[C@H](CC(=O)O)NC(=O)[C@H](CC(C)C)NC(=O)[C@@H](NC(=O)[C@@H](NC(=O)[C@H](C)NC(=O)[C@H](CC(C)C)NC(=O)[C@H](CCC(=O)O)NC(=O)[C@H](CO)NC(=O)[C@@H](NC(=O)[C@H](Cc1ccccc1)NC(=O)[C@H](CO)NC(=O)CNC(=O)[C@H](CCC(=O)O)NC(=O)C(C)(C)NC(=O)[C@@H](N)Cc1c[nH]cn1)[C@@H](C)O)[C@@H](C)O)[C@@H](C)CC)C(=O)N[C@@H](C)C(=O)N[C@@H](Cc1c[nH]c2ccccc12)C(=O)N[C@@H](CC(C)C)C(=O)N[C@H](C(=O)N[C@@H](CCC(N)=O)C(=O)N[C@@H](Cc1c[nH]cn1)C(=O)N[C@@H](CCCCN)C(=O)N[C@H](C(=O)N[C@H](C(=O)N[C@@H](CC(=O)O)C(=O)O)[C@@H](C)O)[C@@H](C)CC)[C@@H](C)CC` [Compound 18] (H-H[Aib]EGSFTSELATILDK([γGlu-C18 diacid])QAARDFIAWLIQHKITD-OH): the half-life in data set [1] (sc, single s.c. dose 0.02 mg, healthy subjects, N 6, read-out: t1/2 Mean (converted)) is 5.83 days; in data set [1] (sc, single s.c. dose 0.07 mg, healthy subjects, N 6, read-out: t1/2 Mean (converted)), 5.25 days; in data set [1] (sc, single s.c. dose 0.2 mg, healthy subjects, N 6, read-out: t1/2 Mean (converted)), 5.38 days; in data set [1] (sc, single s.c. dose 0.6 mg, healthy subjects, N 6, read-out: t1/2 Mean (converted)) it was 4.58 days; in data set [1] (sc, single s.c. dose 1.5 mg, healthy subjects, N 6, read-out: t1/2 Mean (converted)) it was 5 days; in data set [1] (sc, single s.c. dose 3 mg, healthy subjects, N 6, read-out: t1/2 Mean (converted)), 5 days. Further, the half-life in data set [1] (sc, single s.c. dose 6 mg, healthy subjects, N 6, read-out: t1/2 Mean (converted)) was 4.67 days; in data set [1] (sc, single s.c. dose 7.5 mg, healthy subjects, N 6, read-out: t1/2 Mean (converted)), 5.62 days; in data set [1] (subcutaneous, following a single dose, across dose groups, read-out: calculated mean half-life), 4.58 to 5.62 days. Besides, the Body weight result in data set [2] is recorded as “dose dependent reduction in body weight”.
